Experiments:
[1] = molecular target: HIV reverse transcriptase (Human immunodeficiency virus type 1 group M subtype B, UniProt P04585); assay: HIV reverse transcriptase inhibition primer extension experiment (incorporation of nucleoside triphosphates into DNA by RT, chain termination); format: biochemical; conditions: triphosphate form; template SEQ ID NO:1, primer SEQ ID NO:2; terminated product 38 instead of 53 base pairs; FIG. 2
From the text: For primer extension experiments (Example 3), some of the novel nucleoside analog inhibitors were converted to triphosphate form in vitro, such as occurs in mammalian cells by endogenous enzymes.
Once incorporated into the growing DNA strand, transcription is terminated because the nucleosides lack the necessary 3′ hydroxyl group.
The method is analogous to the Sanger sequencing. Specifically, in the presence of a template and four natural nucleotide triphosphates (dATP, dGTP, dCTP and dTTP), a radiolabeled primer is extended to full length by RT, as indicated by a single band on the sequencing gel. Addition of ddTTP, which competes with dTTP, results in the termination of primer extension at the positions of nucleotides opposite adenosine in the template strand. AZTTP, which is also a chain terminator, gives a similar result as ddTTP. If a compounds, e.g., (V) to (VII), in triphosphate form has a branched 3′-group that cannot be accommodated in the 3′-pocket of RT, the compound is not a substrate for RT. Therefore, it will be unable to compete with dTTP, resulting in a completed, extended product. […]
Template cagatagtcttcacgaggcaggtcgtcttgtcctggtActcgtttgcgttccg (SEQ ID NO:1) and primer […] […] With this template and primer, there is only one adenosine in the template to be read into the growing chain as a thymidine (capital and boldface in SEQ ID NO:1). […]

[2] = taken with ddI (Videx or Videx EC); cited from earlier work
[3] = 300 mg x 2/day; cited from earlier work
[4] = nitrogen at the 3'-branched group; Hossain et al., 1993; Huang et al., 1995; cited from earlier work

## Cc1cn([C@H]2C[C@H](N=[N+]=[N-])[C@@H](CO[P@](=O)(O)O[P@](=O)(O)OP(=O)(O)O)O2)c(=O)[nH]c1=O [AZTTP, AZT-triphosphate]
[1]
  chain termination of the primer extension opposite the only A in the template (substrate for RT): chain terminators

## CC(C)OC(=O)OCOP(=O)(CO[C@H](C)Cn1cnc2c(N)ncnc21)OCOC(=O)OC(C)C [Viread, tenofovir DF]
[2]
  increase of ddI levels in the blood: ≤ 60%, causing increased

## Nc1nc(NC2CC2)c2ncn([C@H]3C=C[C@@H](CO)C3)c2n1 [Ziagen, abacavir]
[3]
  Serious allergic reactions, share of patients: Serious allergic reactions in about 3-5% of patients.

## Cc1cn([C@H]2CC[C@@H](COP(=O)(O)OP(=O)(O)OP(=O)(O)O)O2)c(=O)[nH]c1=O [ddTTP]
[1]
  chain termination of the primer extension opposite the only A in the template (substrate for RT): chain terminators

## Cc1cn([C@H]2CC([N+](=O)[O-])[C@@H](CO)O2)c(=O)[nH]c1=O (some centres unmarked) [molecule (I)]
[4]
  effectiveness in vivo: ineffective in vivo
